Measurements from ChEMBL document CHEMBL4371055, “Bioactive polyoxygenated cembranoids from a novel Hainan chemotype of the soft coral Sinularia flexibilis” (Bioorg Med Chem Lett, 2019).

What was measured:
RAW264.7 = assay: Antiinflammatory activity in mouse RAW264.7 cells assessed as inhibition of LPS-induced TNFalpha production pretreated for 30 mins followed by LPS stimulation for 24 hrs by ELISA; type: functional, cell-based
[1] = Cytotoxicity against mouse RAW264.7 cells assessed as reduction in cell viability after 24 hrs by CCK8 assay; type: cell-based
[2] = Selectivity index, ratio of CC50 for mouse RAW264.7 cells to IC50 for inhibition of LPS-induced TNFalpha production in mouse RAW264.7 cells; type: toxicity, cell-based; details: read-out: Ratio CC50/IC50
A549 = assay: Cytotoxicity against human A549 cells after 48 hrs by sulforhodamine B assay; type: functional, cell-based; details: A549, 48 h
HT-29 = assay: Cytotoxicity against human HT-29 cells after 48 hrs by sulforhodamine B assay; type: functional, cell-based; details: HT-29, 48 h
SNU-398 = assay: Cytotoxicity against human SNU398 cells after 48 hrs by sulforhodamine B assay; type: functional, cell-based; details: SNU-398, 48 h
CAPAN-1 = assay: Cytotoxicity against human Capan1 cells after 48 hrs by sulforhodamine B assay; type: functional, cell-based; details: CAPAN-1, 48 h

IC50 (RAW264.7)	Structure (SMILES)	CC50 at 24 h [1]	selectivity ratio [2]	IC50 (A549)	IC50 (HT-29)	IC50 (SNU-398)	IC50 (CAPAN-1)
13.3 µM	C=C(C(=O)OC)[C@H]1CC[C@](C)(O)C(=O)CC/C(C)=C/CC[C@]2(C)O[C@@H]2C1	> 50 µM	> 3.8	> 50 µM	> 50 µM	> 50 µM	> 50 µM
2.7 µM	C=C1C(=O)O[C@]2(C)CC[C@@H]1C[C@@H]1O[C@@]1(C)CC/C=C(\C)CC[C@H]2OC(C)=O	> 50 µM	> 18.5	> 50 µM	32.6 µM	24.9 µM	28.7 µM
8.7 µM	C[C@@H]1C[C@H]2[C@@H]3CCC4=CC(=O)C=C[C@]4(C)[C@@]3(F)[C@@H](O)C[C@]2(C)[C@@]1(O)C(=O)CO [DEXAMETHASONE]	> 50 µM	> 5.7	–	–	–	–
–	CC(=O)O[C@H]1C(=O)[C@@]2(C)[C@H]([C@H](OC(=O)c3ccccc3)[C@]3(O)C[C@H](OC(=O)[C@H](O)[C@@H](NC(=O)c4ccccc4)c4ccccc4)C(C)=C1C3(C)C)[C@]1(OC(C)=O)CO[C@@H]1C[C@@H]2O [PACLITAXEL]	–	–	–	–	0.0006 µM	0.0033 µM
> 50 µM	C=C(C)[C@@H]1CC[C@]2(C)O[C@H]2CC/C(C)=C/CC[C@]2(C)O[C@H]2C1	> 50 µM	–	> 50 µM	> 50 µM	> 50 µM	> 50 µM
4.2 µM	C=C(C(=O)OC)[C@H]1CC[C@@]2(C)O[C@@H]2CC/C(C)=C/CC[C@@]2(C)O[C@H]2C1	> 50 µM	> 11.9	> 50 µM	> 50 µM	> 50 µM	> 50 µM
20.7 µM	C=C(C(=O)OCCCC)[C@@H]1CC[C@@](C)(O)[C@@H]2CC[C@](C)(O2)[C@@H](OC(C)=O)CC[C@]2(C)O[C@H]2C1	> 50 µM	> 2.4	> 50 µM	> 50 µM	> 50 µM	> 50 µM
> 50 µM	C=C(C(=O)OCCCC)[C@@H]1CC[C@@](C)(O)[C@H](O)CC/C(C)=C/CC[C@]2(C)O[C@H]2C1	> 50 µM	–	> 50 µM	> 50 µM	> 50 µM	> 50 µM
> 50 µM	C=C1C(=O)O[C@]2(C)CC[C@@H]1C[C@@H]1O[C@@]1(C)CC/C=C(\C)CCC2=O	> 50 µM	–	27.4 µM	22.7 µM	8.9 µM	9.4 µM
4.7 µM	C=C1C(=O)O[C@]2(C)CC[C@@H]1C[C@@H]1O[C@@]1(C)CC/C=C(\C)CC[C@@H]2O [SINULARIOLIDE]	> 50 µM	> 10.6	> 50 µM	33.6 µM	24.7 µM	26.1 µM
38.9 µM	C=C(C(=O)OCCCC)[C@H]1CC[C@](C)(O)C(=O)CC/C(C)=C/CC[C@]2(C)O[C@@H]2C1	> 50 µM	> 1.3	> 50 µM	> 50 µM	> 50 µM	> 50 µM
